From a melting point compilation (Tetko et al.; mined from patent text by program, amines drawn as free bases though some values may be those of a salt)

Row | SMILES | melting point [°C]
1 | COCOc1cc([N+](=O)[O-])c(F)cc1Cl | 78 to 80
2 | COCc1ccc(OCC(=O)O)c(NC(=O)c2ccc(OCCCCc3ccccc3)cc2)c1 | 126 to 129
3 | Cn1nnc2ccc(CNNc3ccc(Cl)cc3)cc21 | 96
4 | Nc1nnc(-c2cc3c(Oc4ccc(Cl)cc4)cncc3s2)[nH]1 | > 270
5 | O=Cc1ccc(OC2CCN(C(=O)OCC3c4ccccc4-c4ccccc43)CC2)cc1 | 106 to 108
6 | CC(Cn1nnc2ccccc21)(NC(=O)OC1C2CC3CC(C2)CC1C3)C(=O)NCCc1ccccc1 (centres undefined) | 180 to 185
7 | CN(Cc1ccccc1)C(=O)c1ccc2nonc2c1 | 105 to 106
8 | O=C(O)C1CC(=O)N(c2ccccc2)N1 (centres undefined) | 197 to 199
9 | COC(C)Cc1nc2c(N)nc3ccccc3c2n1CC(C)C (centres undefined) | 139 to 141
10 | CCC(Oc1c(C)cc(C)cc1C)C(=O)OC1CC(O)C=C2C=CC(C)C(CCC3CC(O)CC(=O)O3)C21 (mixture of isomers) | 134 to 136
11 | CCCCN(CCCC)C(=O)/C=C/c1ccc(Cn2c(-c3ccc(O)cc3)c(C)c3cc(O)ccc32)cc1 | 126 to 128
12 | C=COCCn1c(CN2CCN(C)CC2)nc2ccccc21 | 65.5 to 67.5
13 | CCOC(=O)C(=O)Nc1ccc(C(=O)NC2CCN(C3CCCCC3)C2)cc1 (centres undefined) | 138 to 141
14 | O=C(Nc1cnc2ccccc2c1)OC1CN2CCC1CC2 (centres undefined) | 135 to 137
15 | Cc1cc(C2=NN[C@H](C)Cc3cc4c(cc32)OCO4)ccc1N | 193 to 196
16 | CN(C)C=C(Cc1ccccc1)C(=O)c1cccnc1Cl | 115 to 120
17 | CCOC(=O)[C@H](CCC1CCCCC1)N[C@@H]1COc2ccccc2N(Cc2ccc(C(C)C)cc2)C1=O | 80
18 | CC(C)(C)c1cc(CC=Cc2ccccc2)c(O)c(C(C)(C)C)c1 | 89
19 | O=C1c2ccccc2OCOc2ccccc21 | 93 to 95
20 | CCc1ccc(-c2c(Cl)c(CN3C(=O)CCC3=O)nc3sc4c(c23)CCN(C(=O)OCc2ccccc2)C4)cc1 | 170 to 171
21 | Nc1cc(C(c2cc(F)ccc2F)S(=O)(=O)c2ccc(Cl)nc2)c(Cl)cn1 (centres undefined) | 157 to 158
22 | CCCOc1nsnc1S(C)(=O)=O | 30 to 31
23 | CCOC(=O)C1=C(COCC(C)(O)c2ncc[nH]2)NC(C)=C(C(=O)OC)C1c1cccc(Cl)c1Cl (centres undefined) | 183
24 | O=C(O)CCCC(=O)c1ccc(O)c(CCC(=O)O)n1 | 134 to 136
25 | CCCCCCCCOc1ccc(-c2nc(-c3ccccc3)c(-c3ccccc3)n2CCCCCCCC(=O)O)cc1 | 114 to 115

Row | SMILES | melting point [°C]
26 | CC(C)CCCC(C)C1C(O)CC2C3=CC=C4C(C)(C)C(O)CCC4(C)C3CCC21C (centres undefined) | 171 to 173
27 | CCOP(=O)(OCC)C(Cc1cc(C)c(O)c(OC)c1)c1cccnc1 (centres undefined) | 85 to 87
28 | COc1cc(C(O)CN)cc(OC)c1OC (centres undefined) | 141
29 | CNC(=O)c1ccc(C(=O)OC)cc1 | 126
30 | Clc1ccc(CCN2CCC3(CC2)Oc2ccccc2Cn2cccc23)cc1 | 116 to 118
31 | CNC(=S)C1(c2cnc3ccccc3c2)CCCCC1=CC#N (centres undefined) | 108 to 111
32 | COc1ccc(C2Sc3c(ccc4ccccc34)N(CCN(C)C)C(=O)C2OC(C)=O)cc1 (centres undefined) | 122 to 124
33 | CC(=O)c1ccc(N(C2CC2)S(=O)(=O)c2cccc(C(=O)Nc3ccc(C#N)cc3)c2)cc1 | 185 to 186
34 | FC(F)(F)c1cc(Br)c(C(F)(F)F)cc1Br | 64 to 65
35 | Cc1ccc2nc(N3CC[C@H](NCCO)C3)ccc2c1NC(=O)CC1CCCCC1 | 204 to 207
36 | Nc1ccc2[nH]nc(-c3ccccc3)c2c1 | 104
37 | CCCCCCN(Cc1ccc2ccccc2n1)C(Nc1cc(C(C)(C)C)c(O)c(C(C)(C)C)c1)=C1C(=O)OC(C)(C)OC1=O | 161 to 163
38 | CCc1cccc(CNC[C@@H](O)[C@H](Cc2cc(F)cc(F)c2)NC(=O)C2CCC(CS(C)(=O)=O)CC2)c1 (some centres undefined) | 45 to 50
39 | O=C(NCCN1CCOCC1)c1ccc2nonc2c1 | 145 to 148
40 | COc1ccc(C2CC(=O)N(C(N)=O)N2Cc2ccccc2)cc1OC1CCCC1 (centres undefined) | 148 to 149
41 | COc1ccc(N(C)c2nc(C)nc3oc4c(c23)CCCC4)cc1 | 147 to 149
42 | O=C(NC1CC1)c1ccc(N2CCNCC2)cc1 | 175 to 177
43 | CC(=O)N1CCC(F)(Cc2c3c(nn2C)c(N)nc2ccccc23)CC1 | 241 to 243
44 | COC(=O)Cc1ccccc1OCc1cc(OCc2nc(-c3ccccc3)sc2C)no1 | 108 to 109
45 | CCCCC(C(=O)O)c1cccc(C(=O)c2cc3cc(C(=O)O)sc3s2)c1 (centres undefined) | 208
46 | CC(=O)Nc1cc(C)c2c(n1)N(C1CC1)c1ncccc1C(=O)N2C(C)=O | 211 to 213
47 | Cc1ccc(Cl)cc1NC(=O)NCC1(c2ccccc2)CCCCC1 | 200 to 202
48 | O=C(c1ccc(Cl)cc1)c1cccc2c1CCC2C(=O)O (centres undefined) | 137 to 139
49 | COc1ccc2cc(S(=O)(=O)Nc3cccc(Cl)c3C)cc(S(=O)(=O)Nc3cccc(Cl)c3C)c2c1 | 166 to 168
50 | CCCCOc1ccc(C=CC(=O)NCCN(O)C(N)=O)cc1 | 127 to 129

Row | SMILES | melting point [°C]
51 | COc1ccc(-c2nc(C)c(C(=O)OCC[Si](C)(C)C)s2)cc1 | 80 to 82
52 | CCON=C(CC)C1=C(OC(=O)c2ccc(Cl)cc2)CC(C)(C)CC1=O | 60 to 62
53 | O=C(O)C(Cc1ccccc1)Cn1ccnc1 (racemic) | 159 to 163
54 | CCOC(=O)Cc1ccc(NC(=O)C(CC(C)C)NS(=O)(=O)c2ccc(Cl)cc2)cc1 (racemic) | 117 to 120
55 | N#Cc1c[nH]c(-c2ccc(Cl)cc2)c1 | 174 to 175
56 | CN1C2CCC1CN(c1ccc(C#Cc3ccc(NC(=O)c4ccccc4)cc3)nn1)C2 | 88 to 96
57 | CSCC(C)NC(=O)c1c(I)cccc1C(=O)Nc1ccc(C2(C(F)(F)F)CC(c3ccc(Cl)cc3)=NO2)cc1C (centres undefined) | 116 to 120
58 | COc1cc(OC)cc(-c2nc[nH]c2-c2ccc(OC(F)F)c(O)c2)c1 | 159 to 161
59 | COC(=O)c1ccc(/C=C/c2nc(-c3ccco3)oc2C)cc1 | 142 to 143
60 | O=C(NCc1ccccc1)c1ccnc(NC(=O)c2cc(F)ccc2Cl)c1 | 180 to 181
61 | Cc1c(C(O)C2CCc3c(c4ccccc4n3C)C2=O)ncn1C(c1ccccc1)(c1ccccc1)c1ccccc1 (centres undefined) | 141 to 147
62 | COc1ccc(F)c(C(=O)O)c1 | 144 to 146
63 | COc1ccc(CC(=O)NC(NC(=NC#N)Nc2c(F)cc(F)cc2F)C(C)(C)C)cc1OC (centres undefined) | 170 to 171
64 | CC(=O)Oc1ccc(C(=O)O)c(C)c1 | 136 to 138
65 | CCNCCNC(=O)c1ccnc(F)c1 | 51 to 52
66 | COc1c(OC(C)=O)ccc(C=O)c1[N+](=O)[O-] | 84 to 86
67 | O=C1CN(c2ccc(CC3NC(=O)c4ccccc4NC3=O)cc2O)S(=O)(=O)N1 (centres undefined) | 180
68 | CC(C)(C)C(O)(COc1ccc(F)cc1)C(C)(F)n1cncn1 (centres undefined) | 90 to 93
69 | CCOC(=O)c1ccc(NC(=O)C=C(c2ccccc2)c2ccc(C)cc2)cc1 | 122 to 124
70 | COC(=O)N=C(NC(=O)OC)Nc1ccc(S(=O)CC(C)C)cc1NC(=O)CS(C)=O (centres undefined) | 149 to 150
71 | CCc1noc(-c2cn(-c3nc[nH]n3)cn2)n1 | 242 to 243
72 | C=C(c1ccc(Cl)cc1)c1ccc(NC(=O)c2cc(Br)cc(Br)c2O)cc1 | 181 to 183
73 | O=C1CN(c2ccccc2)C(=O)N1CCBr | 146 to 147
74 | CCCc1nn(C)c2c(=O)n(CCCNc3ccc(OC(C)(C)C(=O)O)cc3)c(C)nc12 | 104 to 106
75 | CCc1c(C(=O)c2cc(C)cc(C)c2)n(C/C=C/COC(C)=O)c(=O)[nH]c1=O | 152 to 153

Row | SMILES | melting point [°C]
76 | CCCCCCCCCCCCCN(O)C(=O)N(C)C | 57 to 58
77 | CCN(CC)C(=O)N1CCc2cc(S(=O)(=O)N3C(=O)C(NCCC4CCN(C(=O)OC(C)(C)C)CC4)(c4ccccc4Cl)c4cc(Cl)ccc43)ccc21 (centres undefined) | 139
78 | Nc1ccc(S(F)(F)(F)(F)F)cc1[N+](=O)[O-] | 132 to 135
79 | C[C@H](N)Cn1ncc2ccc3oc(C(=O)NCC(C)(C)CO)cc3c21 | 103
80 | CCOC(=O)c1cnn2c(-c3ccc(CC)cc3)ccnc12 | 101 to 103
81 | Cn1nnc2c(N3CCOCC3)nc(Cl)nc21 | 168
82 | Cc1ccc(-c2ccc3c(c2)C=C(C(=O)Nc2ccc(C(=O)C4CCCCN4C(=O)OC(C)(C)C)cc2)CCO3)cc1 (centres undefined) | 223 to 224
83 | COc1c(N)cc(C)cc1N | 67 to 69
84 | O=C1NCCN1Cc1cccnc1 | 58 to 86
85 | CCC(=O)Nc1nnc(S)s1 | 234 to 237
86 | O=C1c2c(-c3ccccc3)noc2CCC1CN1CCOCC1 (centres undefined) | 140 to 141
87 | CCCCNS(=O)(=O)CCCCn1c(COCC)nc2c(N)nc3ccccc3c21 | 148 to 149
88 | NC(=O)c1cccc(OCCOC2CCNCC2)c1 | 144 to 146
89 | CC(C)(C)OC(=O)N1CCN(c2ccc(N=C(N)c3cccs3)cc2)CC1 | 164
90 | CCCn1nnc(NC(=O)C(c2ccccc2)c2ccccc2)n1 | 124 to 125
91 | O=C(O)CCCC/C=C(\c1ccc(-c2nc(C(=O)N[C@@H]3C[C@H]3c3ccccc3)co2)cc1)c1cccnc1 | 78 to 87
92 | O=C1CCC(c2ccccc2)(c2ccccc2)[C@@H]2CN(C(=O)Cc3cccs3)C[C@H]12 (racemic) | 206
93 | CCOC(=O)c1c(CS(=O)c2nc3ccccc3[nH]2)nc2cc(OC)c(OC)cc2c1-c1ccc(OC)c(OC)c1 (centres undefined) | 160 to 161
94 | O=c1oc(OCCCCBr)c(Cl)c2ccccc12 | 75 to 77
95 | N#CCCNN=Cc1ccc(C=NNCCC#N)cc1 | 111 to 113
96 | C(=C(\C(=C\c1ccccc1)c1ccccc1)c1ccccc1)/c1ccccc1 | 183 to 184
97 | CCCCCCCCCCCCCCCCCCNC(=O)OCC(CN)OC(=O)NC (centres undefined) | 49 to 50.5
98 | CN(C)C(=O)Sc1ccccc1C(=O)c1ccccc1C#N | 130
99 | NCC1CCc2[nH]c3ccc(Cl)c(Cl)c3c2C1 (centres undefined) | 169 to 170
